The target in one assay is T1, Pc DHFR (Pneumocystis carinii, UniProt P16184).
T1 construct: made in house; host or cells: Escherichia coli
T1 sequence (P16184 1-206): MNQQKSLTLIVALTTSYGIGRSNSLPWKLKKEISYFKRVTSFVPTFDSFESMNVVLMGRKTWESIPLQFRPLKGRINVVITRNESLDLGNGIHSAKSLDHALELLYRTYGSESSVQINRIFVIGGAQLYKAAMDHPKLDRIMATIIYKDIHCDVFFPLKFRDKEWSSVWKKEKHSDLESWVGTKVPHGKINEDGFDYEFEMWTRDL
The assay can be described thus: Spectrophotometric DHFR assay, Pneumocystis carinii DHFR. It is filed as biochemical. The conditions noted are these: 37°C; (95% confidence limits); read-out: Pc DHFR IC50. The text has this: DHFR from Pneumocystis carinii was produced as the recombinant enzyme expressed in Escherichia coli. […] DHFR from T. gondii was isolated directly from RH strain T. gondii grown in culture on Chinese hamster ovary cells lacking DHFR (CHO/dhfr^-, American Type Culture Collection 3952 CL). Organisms were introduced into a confluent monolayer and harvested when the mammalian cells were lysed. The 100,000× g supernate was stored in liquid nitrogen.
The spectrophotometric assay for DHFR was optimized for temperature and concentration of substrate and cofactor for each enzyme. The standard assay contained Na phosphate buffer pH 7.4 (40.7 mM), 2-mercaptoethanol (8.9 mM), NADPH (0.117 mM), dihydrofolic acid (0.09 mM), KCL (150 mM), and sufficient enzyme to produce a change in OD340 of 0.035/minute at 37°C. The reaction was continuously recorded for 3 minutes. […] The low background activity in the absence of dihydrofolic acid was subtracted from all rates.
(§1) DHFR was assayed with several concentrations of inhibitor to produce rates ranging from 1 to 90% of the uninhibited rate. At least three concentrations were required for calculation; most curves contained five concentrations.

The test system of another assay is T. gondii. The assay can be described thus: Cidal test: cultures kept 52 days after removing compound on the 4th day. The class given is cell-based, Toxoplasma gondii. The conditions noted are these: exposed 4 days, compound removed, cultured 52 days. The text has this:
In separate experiments, to determine whether JPC-2067-B would be cidal for T. gondii, cultures were maintained for 52 days after removing JPC-2067-B on the 4th day of culture.

The test system of assay [1] is T. gondii tachyzoites (RH strain). The assay can be described thus: Murine toxoplasmosis, i.p. JPC-2067-B, peritoneal parasite burden. It is filed as in vivo, mice (outbred Swiss Webster). As to the method: Tachyzoites also were used to infect mice. Outbred Swiss Webster mice were bred in our specific pathogen free colony. When they were approximately 30 g, they received 10,000 RH strain tachyzoites intra-peritoneally (i.p.); numbers of parasites present in peritoneal fluid were counted four days later as described,[13]. Mice were maintained and utilized in accordance with IACUC and NIH guidelines and approvals. JPC-2067-B was administered parenterally. In initial studies, this was given 15 minutes after i.p. infection and then each day for four days(1.25 mg/kg/day). […] Control mice received 1% DMSO in PBS. For these parenterally treated mice, female mice received a dose of 1.25 mg/kg/day of JPC-2067-B, administered i.p. for the next 3 days. Control mice received an equivalent amount of DMSO (1%) in 1× PBS. In a separate experiment, DMSO at this concentration was shown not to modify subsequent parasite numbers when compared with i.p. inoculation of PBS. […] In contrast, infected control mice appeared ill, with ruffled fur and hunched posture. […] These differences between control and treated mice were statistically significant (p<0.05).

Another assay has as its target PfDHFR (Plasmodium falciparum, UniProt Q8I1R6). The assay can be described thus: Plate reader DHFR assay, recombinant P. falciparum DHFR. It is filed as biochemical. The source says:
DHFR from T. gondii prepared as above was also directly compared to purified recombinant P. falciparum DHFR (pfDHFR) and purified recombinant human DHFR (hDHFR). The hDHFR was from pDFR plasmid. The enzyme was purified following ammonium sulfate precipitation, methotrexate:agarose affinity chromatography, and finally a Superdex 200 size exclusion column. The pfDHFR isolation methods were those reported previously,[44]. […] The same buffer as used in the other assays comparing T. gondii DHFR with DHFRs from rat liver P. carinii and M. avium intracellulare was used but the maximal activity, temperature, and length of observation were adjusted for assays on the specific plate reader. […] The reaction was setup at 23°C, the plate loaded, and the OD340 recorded at 20 second intervals for 10 minutes. The first 8 minutes were used to generate linear fit slopes in Excel. […] Results are expressed as the percent of control activity versus log concentration of inhibitor. Prism 5.0 was used to generate curves from 12 different concentrations of inhibitor using a non-linear fit method.

The next assay addresses T2, Rat liver DHFR (Rattus norvegicus, UniProt Q920D2).
T2 construct: Rat liver DHFR was prepared from livers of female Sprague-Dawley rats; from tissue; host or cells: liver of female Sprague-Dawley rats
T2 sequence (Q920D2 1-187): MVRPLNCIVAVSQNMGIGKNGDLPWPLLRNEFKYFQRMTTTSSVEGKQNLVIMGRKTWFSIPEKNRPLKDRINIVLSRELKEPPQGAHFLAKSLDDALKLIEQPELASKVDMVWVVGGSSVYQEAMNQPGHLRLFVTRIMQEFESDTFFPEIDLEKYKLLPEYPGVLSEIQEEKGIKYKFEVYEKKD
The assay can be described thus: Spectrophotometric DHFR assay, rat liver DHFR. The class given is biochemical. The settings on record: 37°C; (95% confidence limits). As for the experimental part: Rat liver DHFR was prepared from livers of female Sprague-Dawley rats. The 100,000× g supernate was partially purified by ammonium sulfate precipitation; the 50–90% precipitate was re-dissolved and stored in liquid nitrogen.
The spectrophotometric assay for DHFR was optimized for temperature and concentration of substrate and cofactor for each enzyme. […] The reaction was continuously recorded for 3 minutes. […] The low background activity in the absence of dihydrofolic acid was subtracted from all rates.
as §1

1 compound from publication PMC2254147, “Novel Triazine JPC-2067-B Inhibits Toxoplasma gondii In Vitro and In Vivo” (PLoS Neglected Tropical Diseases, 2008) can be followed below.

One may read the IC50 as the midpoint of a concentration-inhibition curve.

Molecules are shown by their SMILES. “Also recorded” adds a separate entry of the source. Like-named read-outs stand apart in the source and are kept apart here.

PfDHFR, sequence (Q8I1R6 entry or part of it): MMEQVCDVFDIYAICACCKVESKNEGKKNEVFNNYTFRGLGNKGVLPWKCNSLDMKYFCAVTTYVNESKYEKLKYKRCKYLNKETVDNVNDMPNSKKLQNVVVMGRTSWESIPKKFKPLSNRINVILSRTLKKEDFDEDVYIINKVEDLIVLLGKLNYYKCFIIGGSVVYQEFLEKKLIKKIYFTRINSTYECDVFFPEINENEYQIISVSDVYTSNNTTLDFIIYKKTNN

With `CC1(C)N=C(N)N=C(N)N1OCCCOc1ccc(OC(F)(F)F)cc1Cl` [JPC-2067-B, 4,6-diamino-1,2-dihydro-2,2-dimethyl-1-(3′(2-chloro-, 4-trifluoromethoxyphenoxy)propyloxy)-1,3,5-triazine], the IC50 on Pc DHFR is 3.93 nM; at PfDHFR (recombinant, 23°C, (95% Confidence Intervals), read-out: PfDHFR IC50), 3.88 nM; at PfDHFR (text to Figure 5 and Table 2, read-out: IC50 for P. falciparum DHFR) it was 3.9 nM; on Rat liver DHFR it was 22.2 nM. In addition, the “Plaques or growth of parasites after removal of compound (cidal effect)” value in the assay with T. gondii is “No plaques or Toxoplasma were seen throughout 52 days of culture; also recorded: No plaques or growth of parasites were detected”. The Intraperitoneal parasite numbers result in assay [1] (1.25 mg/kg/day i.p., 10,000 RH tachyzoites i.p., fifth day after injection of parasites, p<0.05) is “reduced by two logs”. Also, the “Appearance of treated mice” value in assay [1] (1.25 mg/kg/day i.p., 4 days after infection) was “sleek and active”.
